Patent US5576303A, “Energy-supplementing saccharide source and its uses” (priority 1993, dated 1996)
Like-named read-outs stand apart in the source and are kept apart here. Values belong to the compound of their own block, whether it stands above or below them.

Key:
rabbits [1] = details: rabbit
Protocol: (§1) A hydrous crystalline trehalose prepared by the method in Experiment 1-2 was dissolved in a refined water, and the resultant solution was membrane filtered, concentrated and recrystallized to obtain a pyrogen-free hydrous crystalline trehalose. The crystal thus obtained was dissolved in injectable distilled water into a 10 w/v % solution isotonic to rabbit blood as trehalose infusion. By using 6 rabbits, about 2-3 kg weight, the infusion was rapidly administered to their ear veins at a dose of one g/kg body weight within 1.5 min, followed by collecting their blood at a prescribed time interval, and subjecting the collected blood samples to the measurements of their sugar levels (glucose concentration (mg/dl)) and insulin levels (μU/ml). As a control, 5 w/v % glucose solution isotonic to rabbit blood was similarly administered to rabbit veins at a dose of 0.5 g/kg body weight. Each result was expressed by the mean value of the 6 rabbits, and the time courses of the blood sugar- and insulin-levels of the rabbits were respectively shown in FIGS. 3 and 4. In the figures, the solid- and dashed-lines mean the time courses of trehalose and insulin in rabbit blood, respectively.

rabbits [2] = details: rabbit; for amount secreted in urine (in words): in vivo
[3] = Isotonicity to rabbit blood; format: physicochemical
Protocol: as §1

[4] = Digestion test in vitro (enzyme derived from rat small intestinal mucous membrane); format: in vitro ADME; details: small intestinal mucosa enzyme, Tables 4 and 5, rat small intestinal enzyme, read-out: Decomposition rate
Protocol: (§2) By using a trehalose solution of a high-purity hydrous crystalline trehalose prepared by the method in Experiment 1-2, a digestion test of trehalose was carried out in vitro in accordance with the method as reported by K. Okada et al. in JOURNAL OF JAPANESE SOCIETY OF NUTRITION AND FOOD SCIENCE, Vol.43, No.1, pp.23-29 (1990). The digestibility of trehalose was evaluated based on the decomposition rate (%) calculated by the following equation: [formula]
As evident from the results in Table 4, trehalose was not substantially hydrolyzed by the enzyme derived from rat small intestinal mucous membrane. By using the rat enzyme, disaccharides were tested for their digestibility similarly as above.

[5] = improper dose or route of administration; cited from earlier work
[6] = cited from earlier work
living bodies = details: prior art; cited from earlier work
human volunteers = experiment: Utilization test in vivo by oral administration (blood sugar and insulin levels)
Protocol: In accordance with the method reported by H. Atsuji et al. in Journal of Clinical Nutrition, Vol.41, No.2, pp.200-208 (1972), 30 g of a hydrous crystalline trehalose prepared by the method in Experiment 1-2 was dissolved in water into a 20 w/v % aqueous trehalose solution, and prescribed amounts of which were orally administered to 6 male volunteers, 26-31-year-old. The volunteers were let blood at a prescribed time interval, and each blood sample was measured its blood sugar level, i.e. glucose concentration (mg/dl) and insulin level (μU/ml). As a control, glucose was used. The results of both levels were the mean values of 6 volunteers. FIGS. 1 and 2 show the time courses of blood sugar- and insulin-levels, respectively. In the figures, the solid- and dashed-lines mean the time courses of trehalose and insulin, respectively.

Acute toxicity test = format: in vivo; details: mouse, in vivo; oral, mice; "the value was not so accurate"
Protocol: (§3) By using mice, trehalose was tested for its acute toxicity by orally administering it to the mice a hydrous crystalline trehalose prepared by the method in Experiment 1-2. […] Based on the result, the LD50 was 50 g/kg or higher, though the value was not so accurate.

mice = experiment: Acute toxicity test; format: in vivo; details: oral
Protocol: as §3

amylases = details: Japanese Patent Laid-Open No. 240,758/88; cited from earlier work
[7] = Digestion test in vitro (salivary amylase); format: in vitro ADME; details: Table 4, salivary amylase, read-out: Decomposition rate
Protocol: as §2

[8] = Digestion test in vitro (pancreatic amylase); format: in vitro ADME; details: Table 4, pancreatic amylase, read-out: Decomposition rate
Protocol: as §2

[9] = Digestion test in vitro (gastric acid); format: in vitro ADME; details: Table 4, gastric acid, read-out: Decomposition rate
Protocol: as §2

[10] = 20 w/v % aqueous solution, 6 male volunteers, mean

Compound: OC[C@@H](O)[C@@H](O)[C@H](O)[C@@H](O)CO [sorbitol]
diarrhea [5]: may cause serious diarrhea

Compound: OC[C@@H](O)[C@@H](O[C@@H]1O[C@H](CO)[C@H](O)[C@H](O)[C@H]1O)[C@H](O)[C@@H](O)CO [lactitol]
metabolism and utilization by living bodies (living bodies): not readily metabolized and utilized by living bodies

Compound: OC[C@@H](O)[C@@H](O[C@H]1O[C@H](CO)[C@@H](O)[C@H](O)[C@H]1O)[C@H](O)[C@@H](O)CO [maltitol]
metabolism and utilization by living bodies (living bodies): not readily metabolized and utilized by living bodies

Compound: OC[C@H]1O[C@H](OC[C@H]2OC(O)[C@H](O)[C@@H](O)[C@@H]2O)[C@H](O)[C@@H](O)[C@@H]1O (some centres unmarked) [Isomaltose]
metabolised [4]: 13.2%

Compound: OC[C@H]1O[C@H](O[C@H]2O[C@H](CO)[C@@H](O)[C@H](O)[C@H]2O)[C@H](O)[C@@H](O)[C@@H]1O [trehalose, O-α-D-glucopyranosyl α-D-glucopyranoside]
assimilation, metabolism and utilization (human volunteers): readily assimilated, metabolized and utilized by living bodies as energy source | time of maximum of blood sugar level after administration (human volunteers; [10]): 30 to 45 min | time of maximum of insulin level after administration (human volunteers; [10]): 30 to 45 min | dynamics of blood sugar- and insulin-levels against glucose (human volunteers; FIGS. 1 and 2): tended to show a time lag | hydrolysis, metabolism and utilization in vivo (rabbits [1]): readily hydrolyzed into glucose in vivo, metabolized and utilized by living bodies as energy source | amount secreted in urine (in words) (rabbits [1]; in vivo): absolutely low | dynamics of blood sugar- and insulin-levels against glucose (rabbits [1]; in vivo): tended to show a time lag | LD50 (Acute toxicity test): ≥ 50000 mg/kg | toxicity (in words) (mice): relatively-low toxicity | mortality (mice; highest possible dose): no mouse died | hydrolysis by amylases (amylases): not substantially hydrolyzed by amylases | metabolised [7]: 0% | metabolised [4]: 1.3% | hydrolysis, metabolism and utilization in vivo (rabbits [2]): readily hydrolyzed into glucose in vivo, metabolized and utilized by the living bodies as energy source | amount secreted in urine (in words) (rabbits [2]): absolutely low | metabolised [8]: 0% | metabolism and utilization by living bodies (living bodies): not substantially assimilated and utilized by the body | degraded [9]: 0% | concentration isotonic to rabbit blood [3]: 10 w/v %

Compound: OC[C@H]1O[C@@H](O[C@H]2[C@H](O)[C@@H](O)C(O)O[C@@H]2CO)[C@H](O)[C@@H](O)[C@@H]1O (some centres unmarked) [Cellobiose]
metabolised [4]: 1.2%

Compound: OC[C@@H](O)[C@H](O)[C@@H](O)CO [xylitol]
diarrhea [5]: may cause serious diarrhea

Further lines, with some results ahead:

amount secreted in urine (in words) (rabbits [1]; in vivo): absolutely low | amount secreted in urine (in words) (rabbits [2]): absolutely low | concentration isotonic to rabbit blood [3]: 5 w/v %
Compound: O=C[C@H](O)[C@@H](O)[C@H](O)[C@H](O)CO [glucose, reference compound]

metabolised [4]: 9.7%
Compound: OC[C@H]1O[C@@H](O[C@H]2[C@H](O)[C@@H](O)C(O)O[C@@H]2CO)[C@H](O)[C@@H](O)[C@H]1O (some centres unmarked) [Lactose]

metabolised [4]: 25.1%
Compound: OC[C@H]1O[C@@](CO)(O[C@H]2O[C@H](CO)[C@@H](O)[C@H](O)[C@H]2O)[C@@H](O)[C@@H]1O [Sucrose]
hydrolysis under acidic conditions [6]: readily hydrolyzed

metabolised [4]: 80.1%
Compound: OC[C@H]1O[C@H](O[C@H]2[C@H](O)[C@@H](O)[C@H](O)O[C@@H]2CO)[C@H](O)[C@@H](O)[C@@H]1O (mixture of isomers) [Maltose]
